# What was measured:
# Assay type in all cases: cell-based, mouse
# [1] = test system: C2C12 myotubes; test: Morphological changes in myotubes by optical microscopic observation
# Procedure: (§1) The C2C12 mouse myoblast cell line was cultured in a culture medium containing 90% DMEM/HG, 10% fetal bovine serum (FBS), and 100 unit/ml penicillin/streptomycin at 37° C. under 5% CO2 condition.
# (§2) 100,000 cells were seeded in 6-well plate. After 4 days, the medium was replaced with a differentiation medium containing 5% horse serum and 100 unit/ml penicillin/streptomycin, and 95% DMEM/HG for differentiation into myotubes at 100% confluence. Here, the date on which the culture medium was replaced with the differentiation medium was designated as day 0, and the differentiation medium was replaced with fresh differentiation medium every day from day 3 to day 5.
# The medium was removed on day 5 to induce muscle atrophy and/or muscle loss, and the culture medium was treated with mitomycin C (hereinafter referred to as MMC) at concentrations of 20 μM, 40 μM, and 100 μM for 24 hours, respectively. An optical microscopic observation was used to identify changes that occurred during the process of muscle atrophy and/or muscle loss. After a predetermined period of time, the medium was removed, and the cells were treated with 0.25% trypsin-ethylene diamine tetra-acetic acid (EDTA, Gibco), and the cells were collected in a culture medium, followed by centrifugation at 1,500 rpm for 3 minutes. […]
# [2] = test system: MuRF-1; test: MuRF-1 mRNA expression level in myotubes (qPCR); conditions: 40 μM
# Procedure: as §1, §2
# (§3) The medium was removed on day 5 to induce muscle atrophy and/or muscle loss, and the culture medium was treated with mitomycin C (hereinafter referred to as MMC) at concentrations of 20 μM, 40 μM, and 100 μM for 24 hours, respectively. An optical microscopic observation was used to identify changes that occurred during the process of muscle atrophy and/or muscle loss. […]
# (§4) RNA was extracted from the cells using AccuPrep®Universal RNA Extraction Kit (Bioneer). CDNA was synthesized using SuperScript™ IV Reverse Transcriptase purchased from Invitrogen, and quantitative real-time polymerase chain reaction (qPCR) was performed using PowerSYBR green PCR Master Mix from Applied biosystem to confirm the mRNA expression level. […]
# [3] = test system: Atrogin-1; test: Atrogin-1 mRNA expression level in myotubes (qPCR); conditions: 40 μM
# Procedure: as §1, §2, §3, §4
# [4] = C2C12 myotubes, 24 hours, compared with 20 μM, dexamethasone 100 μM and control (FIG. 5)
# [5] = serum-free medium, 24 hours (FIG. 7)
smiles,measurement,setting,value
CO[C@@]12[C@H](COC(N)=O)C3=C(C(=O)C(C)=C(N)C3=O)N1C[C@@H]1N[C@@H]12 [mitomycin C],"thickness, length, and number of myotubes","[1]; C2C12 myotubes, 40 μM or less, 24-hour treatment, vs untreated control (FIG. 4)",significantly reduced
same,"thickness, length, and number of myotubes","[1]; serum-free medium, 40 μM, 24 hours (FIG. 6)",significant decrease
same,mRNA expression level of MuRF-1,[2]; [4],the highest
same,mRNA expression level of MuRF-1,[2]; [5],maintained in an increased state
same,mRNA expression level of Atrogin-1,[3]; [4],the highest
same,mRNA expression level of Atrogin-1,[3]; [5],maintained in an increased state

# Reference: patent US20260276626A1, “METHOD FOR SCREENING THERAPEUTIC AGENT FOR MUSCLE WEAKNESS-RELATED DISEASES” (ENCELL CO., LTD., priority 2023, published 2026)
